Test results published in patent US20250170172A1, “METHODS FOR TREATING LENTIVIRUS INFECTION” (Jericho Sciences, LLC, priority 2022, published 2025).

Legend:
dengue virus = details: cited from earlier work
[1] = test system: Japanese encephalitis virus (JEV); details: cited from earlier work
[2] = test system: zinc binding domain of nucleocapsid protein peptide; test: MALDI-TOF competitive binding to nucleocapsid protein peptide in presence of zinc; parameters: species or system HIV; details: equimolar ~2×10^−4 Molar in saline, with and without zinc
Description: FIG. 1 illustrates in vitro competitive binding of FX101 to the zinc binding domain of nucleocapsid protein peptide in the presence of zinc ions using Matrix-assisted laser desorption ionization (MALDI)—time of flight (TOF) analyses. Mixtures were prepared in equimolar concentrations of ˜2×10^−4 Molar solutions in saline. […] Mass Spectrometer: Voyager DE STR (Applied Biosystems). Software: Voyager Instrument Control Panel (v 5.1) and Data Explorer (v4.0) Instrument Method: (a) ACTH_Reflector_Aug24_2010; Accelerating voltage 25000; Grid voltage 63.8%; Mirror voltage ratio1.12, Laser Rep Rate 20.0 Hz Band width 500: Vertical Scale 50, Bin size 0.5: Acquisition mass range 800-4000 Da; Delay 155, 165, or […], Laser Intensity 1480-1590. (b) angiotensine.bic, 75 nsec delay time Calibration: C1 or C2 standards in DHB matrix. Matrix: DHB (Laser BioLabs, France), 10 mg/ml in (a) 50% acetonitrile/50% water-0.1% TFA/50% water, no TFA, and (b) 50% ethanol/50% water, no TFA. Spotted: 0.5 μL sample.
The nucleocapsid protein (NC) of HIV is an established but elusive therapeutic target for HIV infection. Currently available antiretroviral drugs predominately target viral enzymes involved in replication, including reverse transcriptase, integrase and protease. Recently, a new drug class targeting the structural capsid protein has been approved. […]

SIVmac251 = test: Plasma viremia by TAQMAN RT-PCR in SIVmac251-infected Rhesus macaques; type: in vivo, Rhesus macaque (Macaca Mulatta); details: monotherapy 3.0 mg/kg 3 times weekly, subcutaneous
Description: Twenty-four specific pathogen-free (SPF), all male, Rhesus macaque (Macaca Mulatta) nonhuman primates (NHPs) of Indian origin were utilized for this study. The animals were tested to be free from simian type D retrovirus (SRV), simian immunodeficiency virus (SIV), simian T-cell lymphotropic/leukemia virus (STLV) and Cercopithecine herpesvirus 1 (CHV-1) at study initiation. All animals were pre-screened as negative for the protective MHC class I alleles Mamu-A*01, Mamu-B*08, and Mamu-B*17 since these alleles are associated with elite control of SIV infection. All animal studies were approved by the appropriate Institutional Animal Care and Use Committee (IACUC).
Inoculation of NHPs with SIVmac251. […] Each animal was subsequently monitored.
The twenty-four (24) SIVmac251-infected Rhesus macaques were divided into four groups: (1) sham-treated controls (vehicle only); (2) FX101-treated; (3) combination antiretroviral therapy (cART)-treated and (4) FX101 plus cART-treated. […] Comparative evaluations between groups were determined to evaluate whether FX101 alone and/or in combination with cART safely reduces virus in plasma, CSF, tissue reservoirs and/or sanctuary sites. […] Comparative longitudinal clinical measures were assessed to evaluate the safety profile. […]
Determination of plasma and CSF Viral RNA Levels. The amount of RNA copies per ml was determined using a TAQMAN assay. […]

[3] = test system: IL-21 mRNA positive cells; test: IL-21 mRNA positive cell frequency in lymph node and spleen by FISH; type: in vivo, Rhesus macaque (Macaca Mulatta); details: FX-only treated animals; lymph nodes and spleen
Description: (§1) The higher Tier 2 antibody productions indicated differences in germinal center capacities, so we performed (blinded) histochemical evaluation of axillary lymph node and spleen tissues collected at necropsy. Tissues were evaluated using fluorescent in situ hybridization (FISH) probes for each, IL-21 mRNA and SIV mRNA. Cells (stained with 4′,6-diamidino-2-phenylindole) were designated either positive or negative for each hybridization label. The frequency of positive cells was determined by dividing the positive signal by the total number of cells in the field of vision.
Immunohistochemistry and in situ hybridization of lymph node and spleen tissues collected at termination. Five μm formalin fixed paraffin embedded tissues sections were mounted on Superfrost Plus Microscope slides, baked overnight at 60° C. and passed through xylene, graded ethanol, and double distilled water to remove paraffin and rehydrate tissue sections. A microwave was used for heat induced epitope retrieval (HIER). […]
(§2) Quantification of fluorescent immunohistochemistry and in situ hybridization. […] Whole slide images were analyzed using HALO image analysis software v3.1 (Indica Labs, Albuquerque, NM). […] When quantifying SIV infected cells, areas with a dendritic pattern were excluded from the analysis. […] Comparison of treatment groups was assessed using a Mann-Whitney Test (2-tailed, nonparametric)

SIV mRNA positive cells = test: SIV mRNA positive cell frequency in lymph node and spleen by FISH; type: in vivo, Rhesus macaque (Macaca Mulatta); details: FX-only treatment group
Description: as §1, with “vision. […]” for “vision.”
as §2
The frequency of SIV positive cells per million cells was determined using fluorescent in situ hybridization (FISH) as described in Example 8. […]

[4] = Safety assessment in SIV-infected Rhesus macaques (blood counts, clinical chemistries, flow cytometry, necropsy, histochemistry); type: in vivo, Rhesus macaque (Macaca Mulatta); details: 3 mg/kg, 3 times weekly for up to 24 weeks, subcutaneous
Description: Antiviral treatments were initiated at 10 weeks post-infection after the initial inflammatory response had subsided. All drug treatments were administered subcutaneously to avoid repeated sedations of the animals. The control animals received vehicle only (10% dimethylsulfoxide in phosphate buffered saline, DMSO/PBS). The dual-treated group received equal dosing amounts and frequencies of FX101 (3.0 mg/kg, 3× weekly) and cART (daily); the cART treatment group received two nucleo(t/s)ide RT inhibitors (NRTIs), emtricitabine (FTC, 50 mg/kg) and tenofovir disoproxil fumarate (TDF, tenofovir prodrug, 5.1 mg/kg) plus one integrase strand transfer inhibitor (INSTI), dolutegravir (DTG, 2.5 mg/kg). […] Therapeutic cART treatments were administered for up to 24 total weeks, with animals followed for up to 27 weeks post cART cessation (˜1 year post infection). All animals were monitored daily for signs of adverse events during the study.
Safety was assessed by complete blood chemistries, clinical chemistries, flow cytometry, gross necropsies and histochemical tissue imaging. There were no apparent drug-related adverse events between treatment arms across these measures over the study timeline. However, since all the animals were SIV-infected, measures and observations outside of normal healthy expected ranges occurred. […]

Row | SMILES | inhibition of dengue virus infection (dengue virus) | inhibition of Japanese encephalitis virus (JEV) infection [1] | binding to the nucleocapsid protein zinc domain peptide [2] | direct virus replication inhibition, plasma viremia during the treatment period (SIVmac251) | frequencies of IL-21 mRNA positive cells versus control animals [3] | frequencies of virus in spleen and lymph nodes relative to the cART group (SIV mRNA positive cells) | adverse events / tolerability [4]
1 | c1ccc(CN(CCN(Cc2ccccn2)Cc2ccccn2)Cc2ccccn2)nc1 [TPEN, N,N,N′,N′-tetrakis(2-pyridinylmethyl)-1,2-ethanediamine] | inhibits dengue virus | inhibits dengue virus and Japanese encephalitis virus (JEV) infection |  |  |  |  | 
2 | [NH2][Pt]([NH2])([Cl])([Cl])([Cl])[N+](=O)[O-] [FX101] |  |  | binds to the peptide, even in the presence of zinc | no apparent direct virus replication inhibiting activities | higher than for the control animals in both lymph nodes and spleen | very low frequencies of virus in both spleen and lymph nodes | safe and well tolerated
